# In patent US12583868B2, “JAK inhibitors and methods for synthesizing and using thereof” (GALDERMA HOLDING SA, priority 2020, dated 2026):
# Where “and” joins values, the source holds several entries; their conditions need not be identical. Equal entries are not always repeated. Where two headings read alike, the source gives them in different places.
# Columns and labels:
# [1] = Protein binding analysis (RED), mouse plasma; format: in vitro ADME, male balb-c mice; conditions: 5 μM
# Protocol: (§1) The protein binding was assessed in plasma of Human, male balb-c mice, male Wistar Han rat, male Göttingen minipig by rapid equilibrium dialysis (RED) devices. After the plasma and buffer phosphate 50 mM pH7.4 were equilibrated at 37° C., the compound was added to plasma to reach a final concentration of 5 μM. An aliquot of plasma was withdrawn immediately. Equilibration under mild agitation was continued for 4 h. The plasma and buffer were sampled and samples were quenched with 4 volumes of acetonitrile and centrifuged. Supernatant was quantified in HPLC/MS/MS to calculate the recovery and the percentage of compound dissolved in the buffer (unbound) and bound to plasma proteins.
# [2] = SF logD; format: physicochemical
# [3] = Systemic level in PD/IL6 mouse topical dose response; format: in vivo, BALB/c ByJ Rj mice; conditions: topical 10 mM
# Protocol: Skin samples were harvested 15 min.
# [4] = molecular target: T1, CYP2D6 (Homo sapiens, UniProt P10635); test: CYP2D6 inhibition in human liver microsomes; format: in vitro ADME; conditions: dextromethorphan, CRL data
# T1 construct: Human pooled liver microsomes of mixed gender (mainly Caucasian); from tissue; host or cells: pooled human liver microsomes
# T1 sequence (P10635 whole entry): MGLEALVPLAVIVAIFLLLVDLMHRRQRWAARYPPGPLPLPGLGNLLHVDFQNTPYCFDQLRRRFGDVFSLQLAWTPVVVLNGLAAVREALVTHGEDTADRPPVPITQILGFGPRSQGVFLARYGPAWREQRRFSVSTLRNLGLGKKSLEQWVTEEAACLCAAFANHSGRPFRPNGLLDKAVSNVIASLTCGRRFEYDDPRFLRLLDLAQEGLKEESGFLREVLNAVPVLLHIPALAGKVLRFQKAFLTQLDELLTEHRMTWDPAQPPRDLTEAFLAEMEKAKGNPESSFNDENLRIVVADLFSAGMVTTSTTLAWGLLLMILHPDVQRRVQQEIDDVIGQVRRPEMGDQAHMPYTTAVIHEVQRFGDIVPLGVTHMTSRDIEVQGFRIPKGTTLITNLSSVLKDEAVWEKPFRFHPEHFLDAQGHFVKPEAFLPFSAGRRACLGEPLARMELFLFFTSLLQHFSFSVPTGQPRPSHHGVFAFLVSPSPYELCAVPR
# Protocol: After 5 min at 37° C. incubations were started with NADPH and prolonged for 10 min. The test compound was tested up to 30 μM keeping the final concentration of organic solvent was below 0.5%. The final concentration of microsomes was 0.1 mg/ml to ensure linearity during the time of the incubation. The reaction was quenched by adding 3 volume of acetonitrile. After centrifugation the supernatant was analyzed by HPLC/MS/MS for the formation of des-methyldextromethorphane selectively produced by CYP2D6 and 1′hydroxymidazolam or 6p-hydroxytestosterone, selectively produced by CYP3A. IC50 was calculated with Graphpad Prism v.7 comparing the amount of metabolite produced in presence of the test compound with that produced in absence of test item.
# [5] = In vivo pharmacokinetic analysis in rat (iv); design: species or system male Wistar Han rat; conditions: iv 1 mg/kg
# Protocol: (§2) One male Wistar Han rat. Compound was administered intravenously to fed animal at a target dose of 1 mg/kg, dose volume: 2 mL/kg, in DMSO/hydroxypropyl-beta-cyclodextrin 20% in phosphate buffer 60 mM pH 7 (5:95). Blood samples were collected at various time points. Blood samples were then assayed using a method based upon protein precipitation with acetonitrile followed by LC/MS/MS analysis. Non-compartmental methods were used for pharmacokinetic analysis of blood concentration versus time data
# [6] = Human skin ex vivo: flux through skin and dermis concentration (Franz cells); format: in vitro ADME; conditions: PG/H2O cream 1 mg/mL, human skin
# [7] = Intrinsic clearance in hepatocytes, minipig; format: in vitro ADME, male Göttingen minipig; conditions: 2.5 μM
# Protocol: (§3) The intrinsic clearance was assessed in cryopreserved Hepatocytes obtained by Human livers donors of mix gender pooled together, male balb-c mouse, male Wistar Han rats and male Göttingen minipig, by looking at the parent compound disappearance. The incubations were performed using a final concentration of viable cells of 1 million/ml (viability above 70%) and test item of 2.5 μM. Incubations were followed up to 2 h. Aliquotes were withdrawn at different time points and reaction quenched with acetonitrile. After centrifugation the supernatant was analyzed by HPLC/MS to quantify the remaining amount of parent in comparison with time 0. The clearance was calculated by fitting the log of the percentage remaining with Graphpad Prism ver.7.
# [8] = Protein binding analysis (RED), rat plasma; format: in vitro ADME, male Wistar Han rat; conditions: 5 μM
# Protocol: as §1
# [9] = Intrinsic clearance in hepatocytes, rat; format: in vitro ADME, male Wistar Han rats; conditions: 2.5 μM
# Protocol: as §3
# [10] = Thermodynamic sol PG_H2O pH 6 2/8; format: physicochemical; conditions: amorphous material
# [11] = Kinetic aq sol; format: physicochemical
# [12] = Intrinsic clearance in hepatocytes, mouse; format: in vitro ADME, male balb-c mouse; conditions: 2.5 μM
# Protocol: as §3
# [13] = Chrom logD pH 7.4; format: physicochemical
# [14] = system: IL-6 induced pSTAT3 in TF-1 cells; test: In vitro cellular pSTAT3 assay, IL-6 stimulated TF-1 cells; format: cell-based; conditions: Homo sapiens
# Protocol: . The flasks were incubated overnight at 37° C., 5% CO2 then seeded in 96 well plates (TPP) at 150000 cells/well in 25 μL. Cells were treated with 5 IL/well of serially diluted compounds in DMSO (final DMSO concentration of 0.1%) and incubated for 30 min at 37° C. IL-6 (6 IL/well, 100 ng/ml as a final concentration in Opti-MEM, Thermofisher, PHC0066) was added to the cell plates and followed by a 30-min incubation at 37° C. Next, cells were lysed by adding 12 μl/well of 4× supplemented lysis buffer, incubated at 4° C. for 30 min under agitation. The samples were processed for the pSTAT3 detection as described by the manufacturer (MSD) with 25 μl of non-diluted cell lysates tested. Compounds were tested in simplicates over 10 three-step dilutions in order to determine their IC50 values.
# [15] = Protein binding analysis (RED), minipig plasma; format: in vitro ADME; conditions: male, Göttingen, pH 7.4, read-out: minipig FU
# Protocol: as §1
# [16] = Protein binding analysis (RED), human plasma; format: in vitro ADME; conditions: 5 μM
# Protocol: as §1
# [17] = Intrinsic clearance in hepatocytes, human; format: in vitro ADME; conditions: 2.5 μM
# Protocol: as §3
# [18] = system: 44 targets; format: binding
# Protocol: An in vitro pharmacology assay was conducted to assess the capability of the compounds to interact with different pharmacological targets when tested at 10 μM in different binding and enzyme/uptake assays. The included targets are indicative of potential effects in major organs and drug-drug interactions.
# Compound binding was calculated as a % inhibition of the binding of a radioactively labelled ligand specific for each target. […] […].
# [19] = In vivo pharmacokinetic analysis in minipig (iv); design: species or system male Göttingen minipigs; conditions: iv 1 mg/kg
# Protocol: as §2, with “Three” for “One”, “Göttingen minipigs.” for “Wistar Han rat.”, “animals” for “animal”, “volume 1” for “volume: 2”, “DMSO: hydroxypropyl-p-cyclodextrin” for “DMSO/hydroxypropyl-beta-cyclodextrin”, “data.” for “data”
# [20] = system: IL6; test: hWB assay, IL6; format: cell-based, h
structure (smiles),measurement,setting,value
"N#CC[C@H](C1CCCC1)n1cc(-c2ncnc3[nH]ccc23)cn1 [Ruxolitinib, reference compound]",mFU,[1],7.7%
same,logD,[2],2.3
same,PD/IL6 mouse top DR 0.01-10 mM (PG/Acetone/Transcutol): Systemic level @10 mM - 2 hrs,[3],81 nM
same,IC50,[4],> 30 µM
same,iv PK rat: ER,[5],51%
same,clearance,"[5]; male, Wistar Han, whole blood, read-out: iv PK rat: Cl",40 mL/min/kg
same,measured flux 6-24 hr,[6],5.3 ng/cm^2/hr
same,Intr. Clear. minipig heps,[7],141 microL/min/10 6 cells
same,rFU,[8],13%
same,Intr. Clear. rheps,[9],300 microL/min/10 6 cells
same,Thermodynamic sol PG_H2O pH 6 2/8,[10],1 mM and 0.3 mg/mL
same,Kinetic aq sol,[11],232/ND (no cristalline microM
same,Intr. Clear. mheps,[12],150 microL/min/10 6 cells
same,chromatographic logD,[13],1.5
same,IC50,"[14]; TF-1, read-out: Cellular Assay: IC50 IL6",0.008 µM
same,IC50,"[14]; TF-1, read-out: Free IC50",0.2 µM
same,"fraction unbound at 4 h, 5 μM",[15],0.25
same,hFU,[16],4%
same,Intr. Clear. h heps,[17],4.4 microL/min/10 6 cells
same,Safety panel (Cerep): 44 targets % inh @10 microM Nb of targets > 50% inh,[18],0/44
same,iv PK minipig: ER,[19],68%
same,clearance,"[19]; male, Göttingen, whole blood, read-out: iv PK minipig: Cl",19 mL/min/kg
same,IC50,[20],6.9 µM
